Results as given in PubChem BioAssay (NCI).
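The compound was tested at five concentrations on cells cultured in 96-well plates, with a 48-hour exposure period. TGI: concentration producing complete growth inhibition.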

Tests used:
Experiment in all cases: NCI tumour cell line growth inhibition, 48 h
786-0 renal = test system: 786-0 renal
A498 renal = test system: A498 renal
A549 NSCLC = test system: A549 NSCLC
ACHN renal = test system: ACHN renal
BT-549 breast = test system: BT-549 breast
CAKI-1 renal = test system: CAKI-1 renal
CCRF-CEM leukemia = test system: CCRF-CEM leukemia
COLO 205 colon = test system: COLO 205 colon
DU-145 prostate = test system: DU-145 prostate
EKVX NSCLC = test system: EKVX NSCLC
HCT-116 colon = test system: HCT-116 colon
HCT-15 colon = test system: HCT-15 colon
HL-60(TB) leukemia = test system: HL-60(TB) leukemia
HOP-62 NSCLC = test system: HOP-62 NSCLC
HOP-92 NSCLC = test system: HOP-92 NSCLC
HS 578T breast = test system: HS 578T breast
HT29 colon = test system: HT29 colon
IGROV1 ovarian = test system: IGROV1 ovarian
K-562 leukemia = test system: K-562 leukemia
KM12 colon = test system: KM12 colon
LOX IMVI melanoma = test system: LOX IMVI melanoma
M14 melanoma = test system: M14 melanoma
MALME-3M melanoma = test system: MALME-3M melanoma
MCF7 breast = test system: MCF7 breast
MDA-MB-435 = test system: MDA-MB-435
MOLT-4 leukemia = test system: MOLT-4 leukemia
NCI-H226 lung = test system: NCI-H226 lung
NCI-H23 lung = test system: NCI-H23 lung
NCI-H460 lung = test system: NCI-H460 lung
NCI-H522 lung = test system: NCI-H522 lung
NCI/ADR-RES ovarian = test system: NCI/ADR-RES ovarian
OVCAR-3 ovarian = test system: OVCAR-3 ovarian
OVCAR-4 ovarian = test system: OVCAR-4 ovarian
OVCAR-5 ovarian = test system: OVCAR-5 ovarian
OVCAR-8 ovarian = test system: OVCAR-8 ovarian
PC-3 prostate = test system: PC-3 prostate
RPMI-8226 leukemia = test system: RPMI-8226 leukemia
RXF 393 renal = test system: RXF 393 renal
SF-268 CNS = test system: SF-268 CNS
SF-295 CNS = test system: SF-295 CNS
SF-539 CNS = test system: SF-539 CNS
SK-MEL-2 melanoma = test system: SK-MEL-2 melanoma
SK-MEL-5 melanoma = test system: SK-MEL-5 melanoma
SK-OV-3 ovarian = test system: SK-OV-3 ovarian
SN12C renal = test system: SN12C renal
SNB-19 CNS = test system: SNB-19 CNS
SNB-75 CNS = test system: SNB-75 CNS
SR leukemia = test system: SR leukemia
SW-620 colon = test system: SW-620 colon
T-47D breast = test system: T-47D breast
TK-10 renal = test system: TK-10 renal
U251 CNS = test system: U251 CNS
UACC-257 melanoma = test system: UACC-257 melanoma
UACC-62 melanoma = test system: UACC-62 melanoma
UO-31 renal = test system: UO-31 renal

Measured: TGI

COc1cc(/C=C2\N=C(c3ccccc3)N(c3ccc(S(=O)(=O)Nc4nccs4)cc3)C2=O)ccc1O
> 100 µM: all assays above
